Consider eight molecules from patent US8173133B2, “Acyl pseudodipeptides which carry a functionalized auxiliary arm” (OM Pharma, priority 1999, dated 2012).

Converted amounts (≈) assume the structure as drawn.

The subject of experiment [1] is murine macrophage cells. Description: nitric oxide production by murine macrophage cells (Griess). Type of experiment: cell-based, C57/BL6 mice. The note with it: for Max concentration: concentration at maximum amplitude; for EC50 conc: concentration corresponding to 50% of maximum amplitude; for Min concentration: lowest concentration inducing a significant response. An excerpt:
Six-week old male C57/BL6 mice are killed by CO2 inhalation. The hip, femur, tibia and posterior appendage bones are removed. The bone marrow is extracted from the bone lumen by injecting Dulbecco's Modified Eagle Medium (DH medium) from the end portions which had been excised. The stem cells are washed and resuspended (approximate cell concentration 4000 cells/ml) in DH medium supplemented with 20% equine serum (SH) and 30% L929 cell supernatant. L929 is a murine fibroblast cell line the supernatant fluid of which is rich in growth factor for macrophage cells (M-CSF). The cell suspension is divided into Petri dishes which are incubated for 8 days in an incubator at 37° C. under 8% CO2 and a moisture saturated atmosphere.
After 8 days, the stem cells have differentiated into mature macrophage cells. The macrophage cells are scraped off by rapid cooling, washed and resuspended in DH medium supplemented with 5% foetal calf serum (FCS), amino acids and antibiotics. The cell density is adjusted to 700 000 cells/ml.
Products previously dissolved in DH medium supplemented with 5% FCS, amino acids and antibiotics are serially diluted directly in microtiter plates. The products are tested in triplicates and each microtiter plate comprises a negative control containing plain medium. The final volume in each well is 100 μl.
100 μl of cell suspension are added to diluted solutions of such products and the cells are incubated for 22 hours in an incubator at 37° C., under 8% CO2 and a moisture saturated atmosphere. At the end of the incubation period with the products, 100 μl of supernatant are withdrawn and the nitrite concentration is determined by running a Griess reaction.
100 μl of Griess reagent (5 mg/ml of sulfanilamide+0.5 mg/ml of N-(1-naphtylethylene diamine hydrochloride)) in 2.5% aq. phosphoric acid, are added to each well. The microtiter plates are read with a spectrophotometer at 562 nm wavelength against a reference sample at 690 nm. The nitrite concentration is proportional to nitric oxide content being formed. The nitrite content is determined based on a standard curve.
The results are given as mean value±standard deviation and plotted as a dose versus response curve.
From this dose versus response curve, 3 curve variables are computed:
Max: maximum curve amplitude and corresponding concentration
EC50: concentration corresponding to 50% of maximum amplitude
Min: lowest concentration inducing a significant proliferation corresponding to the blank±3× standard deviation value
Concentration values corresponding to EC50 and Min are determined from line segments joining different points on the curve.
If the curve has no plateau phase but an ascending configuration for the highest concentration being tested, a “>” sign is shown before “Max” and “EC50” values.
(Nitrite, measured by Griess reagent, commonly stands in for NO production.)

For experiment [2], the system named is predendritic cells (DC-6). Description: dendritic cell differentiation test: FITC-Dextran take-up. The note with it: for Dextran % CD: products redissolved in pyrogen-free water, % of dendritic cells; for Dextran Fluorescence: mean fluorescence value; for concentration inducing differentiation of DC-6 cells into DC-9 cells: summary of phagocytosis and marker data. Type of experiment: cell-based, human. As for the experimental part: (§1) The ability of products of the invention to induce maturation of predendritic cells into dendritic cells was assessed. The following parameters were measured: FITC-Dextran conjugate take-up and expression of CD83, CD86 surface markers.
(§2) Mononucleated cells of peripheral blood are isolated from buffy coats of healthy donors. Purified monocytes by adherence selection are resuspended in RPMI-1640 medium containing 10% of foetal calf serum (FCS), GM-CSF and IL-4 (10 ng/ml) at a density of 1×10^6 cells/ml. Cells are divided into Petri Dishes (10×10^6 cells per dish) and cultured for 6 days with a change to fresh medium after 3 days. Cells thus obtained are called predendritic cells (DC-6). Maturation of predendritic cells into mature dendritic cells is achieved by incubating cells with diluted solutions of the products or LPS (positive control) for 3 more days (see product section below). At day 9 (DC-9), cells are harvested and analyzed for different indicators of dendritic cell maturation: assessment of CD83, CD86 surface marker expression as well as of their ability to take up FITC-Dextran conjugate. All these parameters are analyzed by an EPICS-XL-MCL model FACS (Coulter Immunology, Hialeah, […]).
(§3) Expression of surface markers is given as % of mean fluorescence of LPS-activated cells (positive control); FITC-Dextran conjugate take-up rate is calculated based on take-up of cells maintained in basic medium and is expressed in %.
(§4) Solutions are incubated at 37° C. for 20 minutes, subjected to vigorous stirring during 3 minutes and then diluted to 100 μg/ml in RPMI-1640 culture medium and used in diluted state at concentrations ranging from 10 μg/ml to 0.03 μg/ml. Reference Product: E. coli lipopolysaccharide (LPS, DIFCO, Detroit, Mich., U.S.A.), as a 5 mg/ml stock solution in PBS. An intermediate 100 μg/ml solution is prepared in RPMI 1640 culture medium. Concentrations of dilute solutions being tested range from 1 μg/ml to 0.03 μg/ml.
(§5) In another series of experiments, all acyl dipeptide-like compounds were freeze-dried and directly redissolved into pyrogen-free water. Different products as well as LPS control are tested at a concentration of 10 μg/ml. Results are given as % of dendritic cells and mean fluorescence value for dextran phagocytosis or CD86 surface marker expression.
Immature dendritic cells (DC-6) resulting from monocyte differentiation, through the joint action of GM-CSF and IL-4, are able to incorporate FITC-Dextran conjugate. During the maturation process, cells lose their ability to incorporate the FITC-Dextran conjugate. Assays are conducted upon reaching the DC-9 differentiation stage.

Experiment [3] concerns CD83, CD86 surface markers of predendritic cells (DC-6). Description: dendritic cell differentiation test: CD83, CD86 surface marker expression. Format: cell-based, human. The note with it: for CD86 % CD / CD86 Fluorescence: 10 μg/ml; for CD86 % CD: products redissolved in pyrogen-free water, % of dendritic cells; for CD86 Fluorescence: mean fluorescence value; for concentration inducing an increase in expression of CD83 and CD86 surface markers: FIGS. 75 & 76. As for the experimental part:
as §1, §2, §3, §4, §5

With `CCCCCCCCCCCC(=O)O[C@H](CCCCCCCCCCC)CC(=O)NC(CCOP(=O)(O)O)C(=O)NCCC[C@H](COC(=O)CCCCCN)NC(=O)C[C@H](O)CCCCCCCCCCC` (mixture of isomers) [OM-197-MP-AC (R/S, R), (3RS,9R)-3-[(R)-3-dodecanoyloxytetradecanoylamino]-4oxo-5-aza-9-[(R)-3-hydroxytetradecanoylamino]-decan-10-ol 1-dihydrogen-phosphate(6-aminohexanoate)], in experiment [1], the “nitric oxide production” value is “higher proliferation response as compared to positive control”, the Max concentration is more than 100 µg/mL, the EC50 conc is more than 10.69 µg/mL and the Min concentration amounted to 1.04 µg/mL. In experiment [2] (10 μg/ml), the “Dextran % CD” value was determined as 84.6% and the “Dextran Fluorescence” value turned out to be 6.3. Also, the “phagocytic capacity retained (% incorporation of FITC-Dextran of unchallenged cells)” value in experiment [2] (DC-9 stage, FIG. 74) is on record as 22%. Further, in experiment [2] (FIG. 74), the “concentration required to induce full decrease of Dextran take-up” value is on record as “at least 1 μg/ml”. Moreover, the “concentration inducing differentiation of DC-6 cells into DC-9 cells” value in experiment [2] was 0.1 µg/mL. Moreover, in experiment [3], the “CD86 % CD” value was 80.0%; the “CD86 Fluorescence” value is reported as 6.0; the “concentration inducing an increase in expression of CD83 and CD86 surface markers” value turned out to be 0.1 µg/mL.

With `CCCCCCCCCCCC(=O)O[C@H](CCCCCCCCCCC)CC(=O)N[C@H](CC(=O)O)C(=O)NCCC[C@H](COC(=O)CCCCCN)NC(=O)C[C@H](O)CCCCCCCCCCC` [OM-197-MC-AC, N—[(R)-3-dodecanoyloxytetradecanoyl]-D-aspartic acid, α-N-{(4R)-5-(6-aminohexanoyloxy)-4-[(R)-3-hydroxytetradecanoylamino]pentyl}amide], in experiment [1], the Max concentration worked out at 25 µg/mL, the EC50 conc is 4.91 µg/mL (≈ 5 µM) and the Min concentration was found to be 0.91 µg/mL. Further, in experiment [2] (10 μg/ml), the “Dextran % CD” value was determined as 68.3% and the “Dextran Fluorescence” value turned out to be 5.2. In experiment [3], the “CD86 % CD” value was 67.4% and the “CD86 Fluorescence” value is reported as 5.2.

In experiment [1], `CCCCCCCCCCCC(=O)O[C@H](CCCCCCCCCCC)CC(=O)N[C@H](CC(=O)N[C@@H](CCCCN)C(=O)O)C(=O)NCCC[C@H](CO)NC(=O)C[C@H](O)CCCCCCCCCCC` [OM-197-Lys] returned a Max concentration of 40 µg/mL, an EC50 conc of 2.23 µg/mL (≈ 2.24 µM) and a Min concentration of less than 0.47 µg/mL. Besides, in experiment [2] (10 μg/ml), the “Dextran % CD” value stood at 12.1% and the “Dextran Fluorescence” value is reported as 0.5. Besides, in experiment [3], the “CD86 % CD” value came to 21.2% and the “CD86 Fluorescence” value turned out to be 2.1.

In experiment [1], `CCCCCCCCCCCC(=O)O[C@H](CCCCCCCCCCC)CC(=O)N[C@H](CC(=O)NCCCN)C(=O)NCCC[C@H](CO)NC(=O)C[C@H](O)CCCCCCCCCCC` [OM-197-AP, N—[(R)-3-dodecanoyloxytetradecanoyl]-D-aspartic acid, α-N-{(4R)-5-hydroxy-4-[(R)-3-hydroxy-tetradecanoylamino]pentyl}-amide β-N-(3-aminopropyl)amide] had a Max concentration of more than 100 µg/mL, an EC50 conc of more than 13.69 µg/mL and a Min concentration of 1.87 µg/mL. For the same molecule, in experiment [2] (10 μg/ml), the “Dextran % CD” value was 56.1% and the “Dextran Fluorescence” value came to 4.4. Moreover, in experiment [3], the “CD86 % CD” value came out at 62.0% and the “CD86 Fluorescence” value was found to be 4.8.

In experiment [1], `CCCCCCCCCCCC(=O)O[C@H](CCCCCCCCCCC)CC(=O)N[C@H](CC(=O)N[C@@H](CC(=O)O)C(=O)O)C(=O)NCCC[C@H](COC(=O)CCCCCN)NC(=O)C[C@H](O)CCCCCCCCCCC` [OM-197-Asp-AC, N—[(R)-3-dodecanoyloxytetradecanoyl]-D-aspartic acid, α-N-{(4R)-5-(6-aminohexanoyloxy)-4-[(R)-3-hydroxytetradecanoyl-amino]-pentyl}amide β-N-[(1S)-1,2-dicarboxyethyl]Amide] yielded a Max concentration of more than 100 µg/mL, an EC50 conc of more than 7.04 µg/mL and a Min concentration of 2.00 µg/mL. In experiment [2] (10 μg/ml), the “Dextran % CD” value is 22.0% and the “Dextran Fluorescence” value amounted to 22.1. Further, in experiment [3], the “CD86 % CD” value came out at 26.7% and the “CD86 Fluorescence” value turned out to be 2.4.

In the case of `CCCCCCCCCCCC(=O)O[C@H](CCCCCCCCCCC)CC(=O)NC(CCOP(=O)(O)O)C(=O)NCCCC(COC(=O)CCCCC(O)CO)NC(=O)C[C@H](O)CCCCCCCCCCC` (stereo partly drawn) [OM-197-FV6, 3-[(R)-dodecanoyloxytetradecanoylamino]-4oxo-5-aza-9-[(R)-3-hydroxytetradecanoylamino]-decan-1,10-diol 1-dihydrogenphate 10-(6,7-dihydroxyheptanoate)], in experiment [1], the Max concentration is 25.6 µg/mL, the EC50 conc is 1.49 µg/mL (≈ 1.38 µM) and the Min concentration was 0.20 µg/mL. For the same molecule, in experiment [2] (10 μg/ml), the “Dextran % CD” value stood at 84.5% and the “Dextran Fluorescence” value came to 6.3. The “effect on maturation of dendritic cells” value in experiment [2] (0.03 to 10 μg/ml) was “apparently no effect”. Besides, the “concentration inducing differentiation of DC-6 cells into DC-9 cells” value in experiment [2] was “totally lack such an activity”. Moreover, in experiment [3], the “CD86 % CD” value stood at 62.9%; the “CD86 Fluorescence” value is reported as 4.9; the “concentration inducing an increase in expression of CD83 and CD86 surface markers” value is “no effect at all”.

As to `CCCCCCCCCCCC(=O)O[C@H](CCCCCCCCCCC)CC(=O)N[C@H](CC(=O)O)C(=O)NCCC[C@H](COC(=O)CCCCC(O)CO)NC(=O)C[C@H](O)CCCCCCCCCCC` (stereo partly drawn) [OM-197-MC-FV5, N—[(R)-3-dodecanoyloxytetradecanoylamino]-D-aspartic acid, α-N-{(4R)-5-hydroxy-4-[(R)-3-hydroxytetra-decanoylamino]-pentyl}amide 5-O-(6,7-dihydroxyheptanoate)], in experiment [1], the Max concentration was 16 µg/mL, the EC50 conc was determined as 2.56 µg/mL (≈ 2.53 µM) and the Min concentration is 0.67 µg/mL. Besides, in experiment [2] (10 μg/ml), the “Dextran % CD” value stood at 86.5% and the “Dextran Fluorescence” value stood at 6.4. Moreover, in experiment [3], the “CD86 % CD” value was found to be 74.5% and the “CD86 Fluorescence” value is listed as 5.6.

In experiment [1], `CCCCCCCCCCCC(=O)O[C@H](CCCCCCCCCCC)CC(=O)N[C@H](CC(=O)O)C(=O)NCCC[C@H](COC(=O)CCCCCNC(=O)CCC(=O)OC[C@H]1O[C@@H](n2cc(C)c(=O)[nH]c2=O)C[C@@H]1N=[N+]=[N-])NC(=O)C[C@H](O)CCCCCCCCCCC` [OM-197-MC-AC-Succ-AZT] had a Max concentration of more than 100 µg/mL, an EC50 conc of more than 74.89 µg/mL and a Min concentration of 55.98 µg/mL. In experiment [2] (10 μg/ml), the “ability to induce differentiation of predendritic cells into dendritic cells” value is “significant ability to induce differentiation into dendritic cells”, the “Dextran % CD” value stood at 62.2% and the “Dextran Fluorescence” value amounted to 4.8. Further, in experiment [3], the “CD86 % CD” value is 81.4% and the “CD86 Fluorescence” value worked out at 6.1.
